We go through 6 compounds from ChEMBL document CHEMBL5724696, “Autophagy assay results for EUbOPEN Chemogenomics Library” (2024).

“And” between values parts separate entries of the source, which are not always exact repeats. Identical values can stand only once.

Holding throughout (assay type): functional, Homo sapiens
In test [1] the test system is U2OS. The test is described as follows: (§1) Here: values are normalized to the positive (DMSO; basel flux = defined as 100% suppression) and negative (250nM Torin1; mTOR inhibitor; maximal inducer of autophagy defined as 0% suppression) control compounds and represented as % of ER-phagy suppression. […] The impact of autophagy induction on cells is complex and depends on the affected target. […] Of note, treatment concentrations may be sub-optimal for specific compounds, leading to false negative annotations. The note with it: Compound Concentration 1 uM, Culturing Media DMEM, 1 % Penicillin/Streptomycin, 10% Fetal bovin serum Add-On: blasticidin, Screening Media Control DMEM, 10% Fetal bovin serum Add-On: 1 µg/ml Doxycyclin, Screening Media Samples DMEM, 10% Fetal bovin serum Add-On: 1 µg/ml Doxycyclin 250nM Torin1.

In test [2] the test system is U2OS. The description is as §1. Conditions: Compound Concentration 1 uM, Culturing Media DMEM, 1 % Penicillin/Streptomycin, 10% Fetal bovin serum Add-On: blasticidin, Screening Media Control DMEM, 10% Fetal bovin serum Add-On: 1 µg/ml Doxycyclin, Screening Media Samples DMEM, 10% Fetal bovin serum Add-On: 1 µg/ml Doxycyclin 250nM Torin1. The source holds these as a separate data set.

The next test relates to TERT-RPE1. The test is described as follows: (§2) Here: values are normalized to the negative (DMSO; defined as 0% autophagy induction) and positive (250nM Torin1; mTOR inhibitor; defined as maximal inducer of autophagy = 100%) control compounds and represented as % of autophagy induction. […] The impact of autophagy induction on cells is complex and depends on the affected target. As such, the magnitude of a phenotype may not be equally mirrored in the %-value of autophagy induction and vice versa. The dynamics of the induction may indicate the mode of activation: e.g. activation via phosphorylation or a signaling cascade may occur fast, while activation via transcription factors may take considerably longer. […] Of note, treatment concentrations may be sub-optimal for specific compounds, leading to false negative annotations. Conditions: Culturing Media DMEM/F12 (1:1), 1 % Penicillin/Streptomycin, 10% Fetal bovin serum Add-On: No, Screening Media Control DMEM/F12 (1:1), Screening Media Samples DMEM/F12 (1:1).

Test [3] deals with U2OS. The description is as §2. The note with it: Culturing Media DMEM, 1 % Penicillin/Streptomycin, 10% Fetal bovin serum Add-On: No, Screening Media Control DMEM, Screening Media Samples DMEM.
Test [4] relates to U2OS. The test is described as §2. The note with it: Culturing Media DMEM, 1 % Penicillin/Streptomycin, 10% Fetal bovin serum Add-On: No, Screening Media Control DMEM, Screening Media Samples DMEM. The source holds these as a separate data set.
[5] abbreviates: Compound Concentration 0.5 uM, Timepoint 12 hours.
[6] abbreviates: Compound Concentration 0.5 uM, Timepoint 24 hours.
Where [7] appears, read: Compound Concentration 0.5 uM, Timepoint 36 hours.
The mark [8] stands for this setting: Compound Concentration 0.5 uM, Timepoint 60 hours.
Setting [9] is: Compound Concentration 2 uM, Timepoint 12 hours.
[10] abbreviates: Compound Concentration 2 uM, Timepoint 24 hours.
Setting [11] is: Compound Concentration 2 uM, Timepoint 36 hours.
[12] abbreviates: Compound Concentration 2 uM, Timepoint 60 hours.
Where [13] appears, read: Compound Concentration 10 uM, Timepoint 12 hours.
Where [14] appears, read: Compound Concentration 10 uM, Timepoint 24 hours.
Setting [15] is: Compound Concentration 10 uM, Timepoint 36 hours.
[16] abbreviates: Compound Concentration 10 uM, Timepoint 60 hours.

In the case of `CCOc1cc(N2CCC(O)CC2)ccc1Nc1ncc2c(n1)N(C)c1ccccc1C(=O)N2C`, the ER-phagy suppression in the test on U2OS [1] (Timepoint 12 hours) is 41.1735%; with U2OS [1] (Timepoint 24 hours) it was 16.7232%; with U2OS [1] (Timepoint 36 hours), 17.4074%; in the test on U2OS [1] (Timepoint 60 hours), 10.8345%; in the test on U2OS [2] (Timepoint 12 hours) it was -49.4363%; in the test with U2OS [2] (Timepoint 24 hours) it was -63.2462%. Moreover, the ER-phagy suppression in the test with U2OS [2] (Timepoint 36 hours) is recorded as -50.7543%; in the test on U2OS [2] (Timepoint 54 hours) it was -40.8997%.

On to `CN([C@@H](Cc1ccc(OS(=O)(=O)c2cccc3cnccc23)cc1)C(=O)N1CCN(c2ccccc2)CC1)S(=O)(=O)c1cccc2cnccc12`, for which the ER-phagy suppression is given as 11.3745% with U2OS [1] (Timepoint 12 hours); -2.8225% in the test on U2OS [1] (Timepoint 24 hours); -4.115% in the test on U2OS [1] (Timepoint 36 hours); -4.142% with U2OS [1] (Timepoint 60 hours); -1.9452% in the test on U2OS [2] (Timepoint 12 hours); -10.891% in the test on U2OS [2] (Timepoint 24 hours). The ER-phagy suppression was -4.8506% in the test on U2OS [2] (Timepoint 36 hours) and -2.408% in the test on U2OS [2] (Timepoint 54 hours).

As for `COc1ccccc1-c1cc(Nc2cccc(CS(N)(=O)=O)c2)ncn1`, the ER-phagy suppression in the test with U2OS [1] (Timepoint 12 hours) is reported as 64.2077%; in the test with U2OS [1] (Timepoint 24 hours), 50.2137%; in the test with U2OS [1] (Timepoint 36 hours), 56.273%; with U2OS [1] (Timepoint 60 hours), 39.1119%; in the test on U2OS [2] (Timepoint 12 hours), -2.879%; in the test with U2OS [2] (Timepoint 24 hours), 2.7876%. The results for the ER-phagy suppression with U2OS [2] (Timepoint 36 hours) and in the test on U2OS [2] (Timepoint 54 hours) were 9.9584% and 17.8632%, respectively.

As for `Cl.Cl.Nc1nccc(-c2c(-c3ccc(F)cc3)ncn2C2CCCCC2)n1`, the ER-phagy suppression is recorded as 12.007% in the test with U2OS [2] (Timepoint 12 hours), 14.1245% with U2OS [2] (Timepoint 24 hours), 19.9643% with U2OS [2] (Timepoint 36 hours) and 25.2011% in the test with U2OS [2] (Timepoint 54 hours).

Take `CCCSc1nc(N[C@@H]2C[C@H]2c2ccc(F)c(F)c2)c2nnn([C@@H]3C[C@H](OCCO)[C@@H](O)[C@H]3O)c2n1` [TICAGRELOR]: the autophagy induction in the test on TERT-RPE1 (Compound Concentration 0.5 uM, Timepoint 12 hours, 12 h, 0.5 µM) was -0.3223% and -0.8015%; with TERT-RPE1 (Compound Concentration 0.5 uM, Timepoint 24 hours, 24 h, 0.5 µM) it was 2.932% and -1.64%; with TERT-RPE1 (Compound Concentration 0.5 uM, Timepoint 36 hours, 36 h, 0.5 µM), 3.182% and -0.1292%; with TERT-RPE1 (Compound Concentration 0.5 uM, Timepoint 60 hours, 60 h, 0.5 µM), 6.614% and -2.465%; with TERT-RPE1 (Compound Concentration 2 uM, Timepoint 12 hours, 12 h, 2 µM), -2.164% and 3.738%; in the test on TERT-RPE1 (Compound Concentration 2 uM, Timepoint 24 hours, 24 h, 2 µM), 2.13% and 2.219%. Besides, the autophagy induction is 3.83% and 3.863% in the test on TERT-RPE1 (Compound Concentration 2 uM, Timepoint 36 hours, 36 h, 2 µM); 10.3636% and 4.688% in the test with TERT-RPE1 (Compound Concentration 2 uM, Timepoint 60 hours, 60 h, 2 µM); 2.799% and 5.117% with TERT-RPE1 (Compound Concentration 10 uM, Timepoint 12 hours, 12 h, 10 µM); 8.7588% and 7.492% in the test with TERT-RPE1 (Compound Concentration 10 uM, Timepoint 24 hours, 24 h, 10 µM); 16.5266% and 7.688% in the test on TERT-RPE1 (Compound Concentration 10 uM, Timepoint 36 hours, 36 h, 10 µM); -3.602% with U2OS [3] (setting [5]). The autophagy induction in the test on U2OS [3] (setting [6]) is listed as -3.07%; in the test on U2OS [3] (setting [7]) it was -60.4394%; in the test with U2OS [3] (setting [8]) it was -2.316%; in the test on U2OS [3] (setting [9]), -5.583%; with U2OS [3] (setting [10]) it was -3.174%; in the test on U2OS [3] (setting [11]) it was -60.5106%. Besides, the autophagy induction in the test with U2OS [3] (setting [12]) is reported as -3.163%; with U2OS [3] (setting [13]) it was -2.648%; with U2OS [3] (setting [14]), 1.759%; in the test on U2OS [3] (setting [15]), -58.5177%; in the test on U2OS [3] (setting [16]), -2.994%; in the test with U2OS [4] (setting [5]) it was -9.844%. Also, the autophagy induction is -12.5107% with U2OS [4] (setting [6]); -15.2375% with U2OS [4] (setting [7]); -18.2861% with U2OS [4] (setting [8]); 2.324% in the test with U2OS [4] (setting [9]); -7.302% in the test with U2OS [4] (setting [10]); -3.06% in the test with U2OS [4] (setting [11]). The autophagy induction is recorded as -7.4162% in the test with U2OS [4] (setting [12]); -4.369% in the test with U2OS [4] (setting [13]); -2.6496% in the test with U2OS [4] (setting [14]); -0.7195% in the test with U2OS [4] (setting [15]); 1.979% in the test on U2OS [4] (setting [16]).

In the case of `CCC(=O)N1CCN(c2ccc(-n3c(=O)ccc4cnc5ccc(-c6cnc7ccccc7c6)cc5c43)cc2C(F)(F)F)CC1` [TORIN1], the ER-phagy suppression was 3.915% in the test on U2OS [2] (Timepoint 12 hours), -7.7479% in the test with U2OS [2] (Timepoint 24 hours), -6.712% in the test with U2OS [2] (Timepoint 36 hours) and -3.9465% with U2OS [2] (Timepoint 54 hours).
